According to the supplement of paper PMC13380429:

Tests used:
Conditions in all cases: 72 h
Vero E6 [1] = experiment: drug sensitivity score (DSS) for viability; higher = more toxic; extreme values may be limits of the assay
U2OS [2] = experiment: as above
Calu-3 [3] = experiment: as above
Caco-2 [4] = experiment: as above
HepG2 [5] = experiment: as above
Vero E6 [6] = experiment: cell viability relative to DMSO; higher = less toxic
U2OS [7] = experiment: as above
Calu-3 [8] = experiment: as above
Caco-2 [9] = experiment: as above
HepG2 [10] = experiment: as above
Vero E6 [11] = experiment: relative viability EC50 (midpoint between 100% and the lowest measured viability); higher = less toxic
U2OS [12] = experiment: as above
Calu-3 [13] = experiment: as above
HepG2 [14] = experiment: as above
Caco-2 [15] = experiment: as above

Compound | drug sensitivity score (Vero E6 [1]) | drug sensitivity score (U2OS [2]) | drug sensitivity score (Calu-3 [3]) | drug sensitivity score (Caco-2 [4]) | drug sensitivity score (HepG2 [5]) | cell viability (Vero E6 [6]; 1 nM) | cell viability (Vero E6 [6]; 10 nM) | cell viability (Vero E6 [6]; 100 nM) | cell viability (Vero E6 [6]; 1000 nM) | cell viability (Vero E6 [6]; 10000 nM) | cell viability (U2OS [7]; 1 nM) | cell viability (U2OS [7]; 10 nM) | cell viability (U2OS [7]; 100 nM) | cell viability (U2OS [7]; 1000 nM) | cell viability (U2OS [7]; 10000 nM) | cell viability (Calu-3 [8]; 1 nM) | cell viability (Calu-3 [8]; 10 nM) | cell viability (Calu-3 [8]; 100 nM) | cell viability (Calu-3 [8]; 1000 nM) | cell viability (Calu-3 [8]; 10000 nM) | cell viability (Caco-2 [9]; 1 nM) | cell viability (Caco-2 [9]; 10 nM) | cell viability (Caco-2 [9]; 100 nM) | cell viability (Caco-2 [9]; 1000 nM) | cell viability (Caco-2 [9]; 10000 nM) | cell viability (HepG2 [10]; 1 nM) | cell viability (HepG2 [10]; 10 nM) | cell viability (HepG2 [10]; 100 nM) | cell viability (HepG2 [10]; 1000 nM) | cell viability (HepG2 [10]; 10000 nM) | relative viability EC50 (Vero E6 [11]) | relative viability EC50 (U2OS [12]) | relative viability EC50 (Calu-3 [13]) | relative viability EC50 (HepG2 [14]) | relative viability EC50 (Caco-2 [15])
COc1ccc(Cl)c(Nc2ncnc3cc(OCC4CCN(C)CC4)c(OC)cc23)c1 | 6.7 | 1.4 | 6.7 | 2.9 | 0 | 95.5% | 99.3% | 89.7% | 76.6% | 27.3% | 104% | 97.2% | 103% | 95.8% | 77.7% | 94.5% | 102% | 89.7% | 75% | 28.5% | 93% | 108% | 99.1% | 89.9% | 68.3% | 99.1% | 105% | 90.6% | 96.6% | 87.7% | 1490 nM | > 10000 nM | 1420 nM | > 10000 nM | 
CSc1nc(N)cc(Oc2ccc(-c3nnc(Nc4cccc(C(F)(F)F)c4)[nH]3)cc2)n1 [KG-5] | 4.5 | 4.8 | 3 | 6 | 4.2 | 98.9% | 103% | 105% | 94.8% | 33.1% | 102% | 101% | 97.5% | 92.9% | 34.7% | 90.3% | 95.4% | 92.7% | 93.2% | 61.8% | 96.7% | 98.7% | 105% | 84.1% | 35.2% | 93.9% | 96% | 92.5% | 99.6% | 25.2% | 2540 nM | 2260 nM |  | 3120 nM | 1570 nM
Cc1noc2c1-c1ccccc1C(c1ccc(Cl)cc1)=N[C@H]2CC(N)=O [CPI-0610] | 13 | 5.1 | 3.2 | 1.2 | 5.9 | 111% | 108% | 88.4% | 38.5% | 16.2% | 105% | 108% | 97.3% | 84.1% | 47.6% | 103% | 99.7% | 105% | 90% | 64.7% | 104% | 108% | 106% | 94.5% | 80.6% | 109% | 111% | 101% | 75.2% | 49.4% | 449 nM | 1420 nM |  | 1020 nM | > 10000 nM
